Laboratory results: US20240216392A1, “METHODS OF TREAMENT” (Arena Pharmaceuticals, Inc., priority 2022, published 2024)
Where two headings read alike, the source gives them in different places.

Columns and labels:
[1] = Phase 1 multiple-dose study, plasma PK; type: in vivo, human; conditions: both sexes, human, plasma, oral; for Tmax: read-out: Plasma Tmax, median (minimum, maximum); for AUC: read-out: Plasma AUCtau, geometric mean (geometric CV %); for Cmax: read-out: Plasma Cmax, geometric mean (geometric CV %); for AUC(0-inf): read-out: plasma geometric mean AUC0-inf
Protocol: Subjects were enrolled to 1 of 2 dosage regimens. Subject enrollment was stratified by sex to ensure approximate sex balance in each cohort.
(§1) Morning doses were administered following a standard light breakfast (e.g., milk and cereal, toast, and fruit) on all days. TID dosing (three times a day) was approximately 8 hours apart. Subjects fasted from midnight onwards, until the morning breakfast each day. There was no fluid restriction during the study, but subjects should not have consumed excessive amounts of fluid on any day.
The Phase 1, open-label, multiple-dose study of Example 1 was conducted for Cohorts 1-3, 4A, and 4B.
as §1, with “hours apart, and BID dosing (two times a day) was 12 hours” for “hours”, “were” for “should”, “to consume” for “have consumed”

[2] = safety and tolerability, Phase 1 study; type: in vivo, human
Protocol: (§2) For Cohorts 1 and 2, the study consisted of a Screening period (Day −28 to −2), an on-site period from Day −1 to Day 16 and a 10-day postdosing follow-up visit (Day 25). Subjects were admitted to the clinic on Day −1 of the assessment period and remained confined to the clinic until completion of the assessment period (or longer if the Investigator deemed it is clinically indicated for safety follow-up). Safety was assessed continuously from signing of informed consent form through follow up visit. Safety assessments including cardiac troponins, vital signs, 12-lead ECGs (electrocardiograms) were performed at screening and daily from Day −1 to Day 16, and follow-up. C-SSRS (Columbia-suicide severity rating scale) was assessed at screening, Days −1, 11, 16, and 25.
as §2, with “all cohorts,” for “Cohorts 1 and 2,”, “Safety assessments including cardiac troponins, vital signs, 12-lead ECGs (electrocardiograms) were performed at screening and daily from Day −1 to Day 16, and follow-up.” left out

[3] = tested on: UGT metabolic pathway and renal transporters; conditions: single 12 mg dose with probenecid/cimetidine vs alone
[4] = 12 mg, Day 8, Cohort 2 (12 mg TID)
[5] = 12 mg, Day 8, Cohort 3 (12 mg BID)
[6] = 12 mg, Day 9, Cohort 2 (12 mg TID)
[7] = 12 mg, Day 9, Cohort 3 (12 mg BID)
[8] = 12 mg, Day 10, Cohort 2 (12 mg TID)
[9] = 12 mg, Day 10, Cohort 3 (12 mg BID)
[10] = 15 mg, Day 8, Cohort 4A (15 mg BID)
[11] = 15 mg, Day 9, Cohort 4A (15 mg BID)
[12] = 15 mg, Day 10, Cohort 4A (15 mg BID)
[13] = 18 mg, Day 8, Cohort 4B (18 mg BID)
[14] = 18 mg, Day 9, Cohort 4B (18 mg BID)
[15] = 18 mg, Day 10, Cohort 4B (18 mg BID)

C[C@H]1CN2CCNCc3ccc(C(=O)NCC(F)F)c1c32 [Compound 1, (R)—N-(2,2-difluoroethyl)-7-methyl-1,2,3,4,6,7-hexahydro-[1,4]diazepino[6,7,1-hi]indole-8-carboxamide]
Tmax ([1]; 6 mg, Day 10, Cohort 1 (6 mg TID)): 1.03 h
AUC [1, 4]: 190 ng·h/mL
Cmax [1, 4]: 36.7 ng/mL
half-life ([1]; 12 mg, Day 8, Cohort 2 (12 mg TID), read-out: Plasma T1/2, mean (SD) (converted)): 4.74 h
Tmax [1, 4]: 1.01 h
AUC [1, 5]: 156 ng·h/mL
Cmax [1, 5]: 30.3 ng/mL
half-life ([1]; 12 mg, Day 8, Cohort 3 (12 mg BID), read-out: Plasma T1/2, mean (SD) (converted)): 4.32 h
Tmax [1, 5]: 1.01 h
AUC [1, 6]: 194 ng·h/mL
Cmax [1, 6]: 44.5 ng/mL
half-life ([1]; 12 mg, Day 9, Cohort 2 (12 mg TID), read-out: Plasma T1/2, mean (SD) (converted)): 4.79 h
Tmax [1, 6]: 0.92 h
AUC [1, 7]: 163 ng·h/mL
Cmax [1, 7]: 37.2 ng/mL
half-life ([1]; 12 mg, Day 9, Cohort 3 (12 mg BID), read-out: Plasma T1/2, mean (SD) (converted)): 4.58 h
Tmax [1, 7]: 0.93 h
AUC [1, 8]: 196 ng·h/mL
Cmax [1, 8]: 39.8 ng/mL
half-life ([1]; 12 mg, Day 10, Cohort 2 (12 mg TID), read-out: Plasma T1/2, mean (SD) (converted)): 4.08 h
Tmax [1, 8]: 1.02 h
AUC [1, 9]: 154 ng·h/mL
Cmax [1, 9]: 31.3 ng/mL
half-life ([1]; 12 mg, Day 10, Cohort 3 (12 mg BID), read-out: Plasma T1/2, mean (SD) (converted)): 3.54 h
Tmax [1, 9]: 1 h
AUC [1, 10]: 194 ng·h/mL
Cmax [1, 10]: 44.8 ng/mL
half-life ([1]; 15 mg, Day 8, Cohort 4A (15 mg BID), read-out: Plasma T1/2, mean (SD) (converted)): 5.36 h
Tmax [1, 10]: 0.55 h
AUC [1, 11]: 208 ng·h/mL
Cmax [1, 11]: 50.2 ng/mL
half-life ([1]; 15 mg, Day 9, Cohort 4A (15 mg BID), read-out: Plasma T1/2, mean (SD) (converted)): 5.51 h
Tmax [1, 11]: 0.57 h
AUC [1, 12]: 193 ng·h/mL
Cmax [1, 12]: 40.9 ng/mL
half-life ([1]; 15 mg, Day 10, Cohort 4A (15 mg BID), read-out: Plasma T1/2, mean (SD) (converted)): 3.72 h
Tmax [1, 12]: 1.06 h
AUC [1, 13]: 230 ng·h/mL
Cmax [1, 13]: 43.2 ng/mL
half-life ([1]; 18 mg, Day 8, Cohort 4B (18 mg BID), read-out: Plasma T1/2, mean (SD) (converted)): 5.51 h
Tmax [1, 13]: 0.99 h
AUC [1, 14]: 242 ng·h/mL
Cmax [1, 14]: 47.7 ng/mL
half-life ([1]; 18 mg, Day 9, Cohort 4B (18 mg BID), read-out: Plasma T1/2, mean (SD) (converted)): 4.3 h
Tmax [1, 14]: 0.5 h
AUC [1, 15]: 224 ng·h/mL
Cmax [1, 15]: 53 ng/mL
half-life ([1]; 18 mg, Day 10, Cohort 4B (18 mg BID), read-out: Plasma T1/2, mean (SD) (converted)): 3.51 h
Tmax [1, 15]: 1 h
half-life ([1]; steady state, read-out: half-life at steady state (converted)): ~5 h
AUC(0-inf) ([1]; Day 1, single 3 mg dose, Cohort 1): 21.3 ng·h/mL
AUC(0-inf) ([1]; Day 1, single 6 mg dose, Cohorts 2, 3, 4A, 4B): 36.5 to 51.9 ng·h/mL
safety and tolerability ([2]; Cohorts 1 and 2): Favorable safety and tolerability results
safety and tolerability ([2]; all cohorts): Favorable safety and tolerability results
increase in Compound 1 exposure [3]: ~80%
